Measured values as given in US20240043435A1, “TYK-2 INHIBITOR” (BEIGENE, LTD., priority 2020, published 2024).

Assays:
[1] = molecular target: T1, TYK2-JH2 (aa 575-869, in-house) protein (Homo sapiens, UniProt P29597); assay: TYK2-JH2 biochemical assay (HTRF probe displacement); type: binding; conditions: Biochemical assay; read-out: TYK2-JH2 IC50
T1 construct: TYK2-JH2 (aa 575-869, in-house) protein; made in house
How it was run: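 HTRF probe-displacement format: compound dilutions (10 points, 5-fold, from 500 uM in DMSO at 500×) were combined with 0.2 nM TYK2-JH2 protein for 0.5 h at room temperature in HEPES pH 7.5 buffer with MgCl2, BSA, DTT and Brij-35. Percent inhibition came from the 615/665 nm fluorescence ratio, fitted to a four-parameter logistic for IC50.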

[2] = system: JAK2, TYK2/p-STAT4 (Tyr693) activated by IL-12 in NK-92 cell line; assay: IL-12-JAK2, TYK2/p-STAT4 (Tyr693) inhibition IC50 cellular assay; type: cell-based; conditions: for IC50: NK92, Cellular assay, read-out: pSTAT4/IL-12 IC50; for Selectivity fold (TYK2/JAK2): Cellular assay, pSTAT5/GM-CSF IC50 vs pSTAT4/IL-12 IC50
How it was run: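 p-STAT4 (Tyr693) in lysates was measured by AlphaLISA SureFire Ultra after a 30 min IL-12 challenge (40 ng/ml final) at 37° C. Overnight-starved, IL-2-free NK-92 cells had been pretreated 1 h with compound at 10000 to 0.61 nM (4-fold, 8 points). IC50 values came from four-parameter logistic fitting.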

pSTAT5/GM-CSF = pSTAT5/GM-CSF cellular assay (JAK2 selectivity); type: cell-based
[3] = pSTAT5/GM-CSF IC50 over pSTAT4/IL-12 IC50

T1 sequence (P29597 575-869): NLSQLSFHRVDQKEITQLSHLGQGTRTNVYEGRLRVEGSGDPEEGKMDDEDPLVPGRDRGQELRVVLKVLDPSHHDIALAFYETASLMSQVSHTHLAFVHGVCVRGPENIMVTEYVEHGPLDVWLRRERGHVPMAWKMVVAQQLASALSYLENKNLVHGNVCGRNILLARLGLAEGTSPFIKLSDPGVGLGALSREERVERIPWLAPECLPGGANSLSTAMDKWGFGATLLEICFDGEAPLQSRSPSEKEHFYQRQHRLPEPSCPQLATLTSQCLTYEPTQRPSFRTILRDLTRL

SMILES | IC50 [1] | IC50 [2] | IC50 (pSTAT5/GM-CSF) | Selectivity fold (TYK2/JAK2) (pSTAT5/GM-CSF; [3]) | Selectivity fold (TYK2/JAK2) [2] | Selectivity fold (TYK2/JAK2) (pSTAT5/GM-CSF; pSTAT5/GM-CSF vs pSTAT4/IL-12)
CC(=O)Nc1cc(Nc2nc(S(C)(=O)=O)ccc2C)c(-c2ccc(C(C)(C)O)cn2)cn1 [Example H32, N-(5-(2-hydroxypropan-2-yl)-4′-((3-methyl-6-(methylsulfonyl)pyridin-2-yl)amino)-[2,3′-bipyridin]-6′-yl)acetamide] | 0.023 nM | 0.447 nM | > 10000 nM | – | >22371 fold | –
COCCOc1cc(Nc2cc(NC(C)=O)ncc2-c2ccc(N3CCOCC3=O)cn2)nc(S(C)(=O)=O)c1 [Example G4, N-(4′-((4-(2-methoxyethoxy)-6-(methylsulfonyl)pyridin-2-yl)amino)-5-(3-oxomorpholino)-[2,3′-bipyridin]-6′-yl)acetamide] | 0.048 nM | 16 nM | > 10000 nM | – | – | >625 fold
CC(=O)Nc1cc(Nc2cc(O[C@H]3C[C@@H](O)C3)cc(S(C)(=O)=O)n2)c(-c2ccn(C)n2)cn1 [Example J17, N-(4-((4-((cis)-3-hydroxycyclobutoxy)-6-(methylsulfonyl)pyridin-2-yl)amino)-5-(1-methyl-1H-pyrazol-3-yl)pyridin-2-yl)acetamide] | 0.043 nM | 6.8 nM | > 10000 nM | >1470 fold | – | –
CC(=O)Nc1cc(Nc2cccc(S(C)(=O)=O)n2)c(-c2ccc(N3C[C@@H](C)O[C@@H](C)C3)cn2)cn1 [Example C2, N-(5-((cis)-2,6-dimethylmorpholino)-4′-((6-(methylsulfonyl)pyridin-2-yl)amino)-[2,3′-bipyridin]-6′-yl)acetamide] | 0.026 nM | 0.312 nM | 962 nM | – | 3083 fold | –
COCc1cc(Nc2cc(NC(C)=O)ncc2-c2ccc(C(C)(C)O)cn2)nc(S(C)(=O)=O)c1 [Example H13, N-(5-(2-hydroxypropan-2-yl)-4′-((4-(methoxymethyl)-6-(methylsulfonyl)pyridin-2-yl)amino)-[2,3′-bipyridin]-6′-yl)acetamide] | 0.042 nM | 0.676 nM | 4080 nM | – | 6028 fold | –
CC(=O)Nc1cc(Nc2cc(OC(C)C)cc(S(C)(=O)=O)c2)c(-c2ccc(C(C)(C)O)cn2)cn1 [Example H24, N-(5-(2-hydroxypropan-2-yl)-4′-((3-isopropoxy-5-(methylsulfonyl)phenyl)amino)-[2,3′-bipyridin]-6′-yl)acetamide] | 0.034 nM | 5.39 nM | > 10000 nM | – | >1855 fold | –
CC(=O)Nc1cc(Nc2cc(OCC3CC3)cc(S(C)(=O)=O)n2)c(-c2ccc(C(C)(C)O)cn2)cn1 [Example H30, N-(4′-((4-(cyclopropylmethoxy)-6-(methylsulfonyl)pyridin-2-yl)amino)-5-(2-hydroxypropan-2-yl)-[2,3′-bipyridin]-6′-yl)acetamide] | 0.023 nM | 0.972 nM | > 10000 nM | – | >10288 fold | –
CC(=O)Nc1cc(Nc2cccc(S(C)(=O)=O)n2)c(-c2ccc(N3CCOCC3=O)cn2)cn1 [Example G2, N-(4′-((6-(methylsulfonyl)pyridin-2-yl)amino)-5-(3-oxomorpholino)-[2,3′-bipyridin]-6′-yl)acetamide] | 0.067 nM | 14.2 nM | > 10000 nM | – | – | >704 fold
CC(=O)Nc1cc(Nc2cc(C)cc(S(C)(=O)=O)c2)c(-c2ccc(C(C)(C)O)cn2)cn1 [Example H21, N-(5-(2-hydroxypropan-2-yl)-4′-((3-methyl-5-(methylsulfonyl)phenyl)amino)-[2,3′-bipyridin]-6′-yl)acetamide] | 0.024 nM | 2.24 nM | > 10000 nM | – | >4464 fold | –
CC(=O)Nc1cc(Nc2cc(OC(C)C)cc(S(C)(=O)=O)n2)c(-c2ccc(N3CC4CC3CO4)cn2)cn1 (stereo not shown) [Example B16, N-(5-(2-oxa-5-azabicyclo[2.2.1]heptan-5-yl)-4′-((4-isopropoxy-6-(methylsulfonyl)pyridin-2-yl)amino)-[2,3′-bipyridin]-6′-yl)acetamide] | 0.03 nM | 0.513 nM | 4290 nM | – | 8366 fold | –
CC(=O)Nc1cc(Nc2cc(OC(C)C)cc(S(C)(=O)=O)n2)c(-c2ccc(N3C[C@@H](C)O[C@@H](C)C3)cn2)cn1 [Example C4, N-(5-((cis)-2,6-dimethylmorpholino)-4′-((4-isopropoxy-6-(methylsulfonyl)pyridin-2-yl)amino)-[2,3′-bipyridin]-6′-yl)acetamide] | 0.034 nM | 4.35 nM | > 10000 nM | – | >2298 fold | –
COCC1CN(c2ccc(-c3cnc(NC(C)=O)cc3Nc3cc(OC(C)C)cc(S(C)(=O)=O)n3)nc2)CCO1 (stereo not shown) [Example B18, N-(4′-((4-isopropoxy-6-(methylsulfonyl)pyridin-2-yl)amino)-5-(2-(methoxymethyl)morpholino)-[2,3′-bipyridin]-6′-yl)acetamide] | 0.036 nM | 1.05 nM | > 10000 nM | – | >9523 fold | –
COCCOc1ccc(-c2cnc(NC(C)=O)cc2Nc2cc(OC[C@@H](C)OC)cc(S(C)(=O)=O)n2)nc1 [Example D7, (R)-N-(5-(2-methoxyethoxy)-4′-((4-(2-methoxypropoxy)-6-(methylsulfonyl)pyridin-2-yl)amino)-[2,3′-bipyridin]-6′-yl)acetamide] | 0.031 nM | 0.805 nM | > 10000 nM | – | >12422 fold | –

Further lines, with some results ahead:

IC50 [1] | IC50 [2] | IC50 (pSTAT5/GM-CSF) | SMILES | Selectivity fold (TYK2/JAK2) (pSTAT5/GM-CSF; [3]) | Selectivity fold (TYK2/JAK2) [2] | Selectivity fold (TYK2/JAK2) (pSTAT5/GM-CSF; pSTAT5/GM-CSF vs pSTAT4/IL-12)
0.037 nM | 1.93 nM | > 10000 nM | CC(=O)Nc1cc(Nc2cc(OC3COC3)cc(S(C)(=O)=O)n2)c(-c2ccn(C)n2)cn1 [Example J22, N-(5-(1-methyl-1H-pyrazol-3-yl)-4-((6-(methylsulfonyl)-4-(oxetan-3-yloxy)pyridin-2-yl)amino)pyridin-2-yl)acetamide] | >5181 fold | – | –
0.026 nM | 0.989 nM | > 10000 nM | CCOc1cc(Nc2cc(NC(C)=O)ncc2-c2ccn(CC)n2)nc(S(C)(=O)=O)c1 [Example M18, N-(4-((4-ethoxy-6-(methylsulfonyl)pyridin-2-yl)amino)-5-(1-ethyl-1H-pyrazol-3-y)pyridin-2-yl)acetamide] | >10111 fold | – | –
0.033 nM | 0.792 nM | > 10000 nM | CO[C@H](C)COc1cc(Nc2cc(NC(C)=O)ncc2-c2ccn(C)n2)nc(S(C)(=O)=O)c1 [Example J14, (R)-N-(4-((4-(2-methoxypropoxy)-6-(methylsulfonyl)pyridin-2-yl)amino)-5-(1-methyl-1H-pyrazol-3-yl)pyridin-2-yl)acetamide] | >12626 fold | – | –
0.067 nM | 9.69 nM | > 10000 nM | COCc1cc(Nc2cc(NC(C)=O)ncc2-c2ccn(C)n2)cc(S(C)(=O)=O)c1 [Example J34, N-(4-((3-(methoxymethyl)-5-(methylsulfonyl)phenyl)amino)-5-(1-methyl-1H-pyrazol-3-yl)pyridin-2-yl)acetamide] | >1031 fold | – | –
0.079 nM | 8.79 nM | > 10000 nM | CC(=O)Nc1cc(Nc2cc(C(F)F)cc(S(C)(=O)=O)c2)c(-c2ccn(C)n2)cn1 [Example J32, N-(4-((3-(difluoromethyl)-5-(methylsulfonyl)phenyl)amino)-5-(1-methyl-1H-pyrazol-3-yl)pyridin-2-yl)acetamide] | >1137 fold | – | –
0.032 nM | 0.487 nM | 2180 nM | COCCOc1cc(Nc2cc(NC(C)=O)ncc2-c2ccn(C(C)C)n2)nc(S(C)(=O)=O)c1 [Example M24, N-(5-(1-isopropyl-1H-pyrazol-3-yl)-4-((4-(2-methoxyethoxy)-6-(methylsulfonyl)pyridin-2-yl)amino)pyridin-2-yl)acetamide] | 4466 fold | – | –
0.049 nM | 27.7 nM | > 10000 nM | COc1ccc(Nc2cc(NC(C)=O)ncc2-c2ccn(C)n2)nc1S(C)(=O)=O [Example J50, N-(4-((5-methoxy-6-(methylsulfonyl)pyridin-2-yl)amino)-5-(1-methyl-1H-pyrazol-3-yl)pyridin-2-yl)acetamide] | >361 fold | – | –
0.037 nM | 4.73 nM | > 10000 nM | CC(=O)Nc1cc(Nc2cc(OC[C@@H](C)O)cc(S(C)(=O)=O)n2)c(-c2ccn(C)n2)cn1 [Example J47, (R)-N-(4-((4-(2-hydroxypropoxy)-6-(methylsulfonyl)pyridin-2-yl)amino)-5-(1-methyl-1H-pyrazol-3-yl)pyridin-2-yl)acetamide] | >2114 fold | – | –
0.083 nM | 6.54 nM | > 10000 nM | COc1cc(Nc2cc(NC(C)=O)ncc2-c2ccn(C)n2)cc(S(C)(=O)=O)c1 [Example J9, N-(4-((3-methoxy-5-(methylsulfonyl)phenyl)amino)-5-(1-methyl-1H-pyrazol-3-yl)pyridin-2-yl)acetamide] | >1529 fold | – | –
